Measurements: patent publication US20110064679A1 (priority 2008, published 2011)
Like-named read-outs stand apart in the source and are kept apart here.

Tests used:
[1] = tested on: Mouse; conditions: cited from earlier work
[2] = tested on: C57BL/6 mice; assay: in vivo
Protocol: (§1) This product was added to the normal diet and consumed over a period of eight hours. Food was selected as the vehicle of choice due to solubility concerns of the Oxaloacetate and because of the anticipated use of the product.
(§2) C57BL/6 mice were used in this test. These mice were used because they are often used for longevity studies. Additionally, there is substantial information on Chronic exposure of the test compound with this breed of mice.
(§3) Male mice were used in the Acute study because male mice were used in the Chronic exposure study. Each animal was housed separately and was 2 months of age.
(§4) 5,000 mg/kg doses of the test compound were added to food, as it is anticipated that this product will be taken with a meal. Specifically,
(§5) Each animal was caged separately. Prior to feeding, the bedding in the animal cage was changed. Food was prepared by dissolving 100 mg of the test compound with each ml of distilled water, then rolling the appropriate amount of food pellets in the amount of water until the waster was absorbed to obtain the proper dosage per animal. The test compound laced food was placed in the cage with the animal at the end of the day. […] Water was provided freely.
(§6) After dosing the animals with the test compound, the animals were returned to a standard Ad Librium diet of food pellets and water.

[3] = in vivo; conditions: male, C57BL/6, mouse, in vivo, po
Protocol: as §1, §2, §3, §4, §5, §6

[4] = Acidizing function: pH of agar; format: physicochemical
Protocol: (§7) This dropped the pH of the agar from 6.0 to 5.3. The toxicity of the acidizing agent was tested by examining the lifespan of Caenorhabditis elegans.

[5] = tested on: microbial growth; assay: Preservative function: microbial growth in agar and cornmeal paste; conditions: for microbial growth compared to control preparations: 8 mM in Nematode Growth Agar and cornmeal paste, monitored with a microscope
Source text: These compositions where monitored over time with a microscope, and compared to control preparations.

[6] = tested on: Mus musculus; conditions: in vivo
Protocol: (§8) The toxicity of the preservative was tested by examining the lifespan of Caenorhabditis elegans, Drosophila melanogaster, and Mus musculus.

[7] = tested on: C57BL/6 mice; conditions: for Average increase in lifespan compared to the control group: daily dosage of 380 mg/kg, male C57BL/6 mice started at 9 months
Protocol: as §1
C57BL/6 mice were used in this test. These mice were used because they are often used for longevity studies.
Male mice were used in the Chronic study because of their linear increase in weight with time. Females are less linear in their increase.
Each animal was housed separately and the test was started with older animals (9 months of age) as human use is primarily anticipated to be in the older populations. The test was continued until all animals died.
25 Male C57BL/6 mice with the same day of birth (plus or minus 1 week) were selected for the test. The mice were evaluated for fasting glucose levels and weight, and broken into three similar groups based on equalization of weight and fasting glucose levels.
Each animal was caged separately in a low stimulus environment and fed one of three diets. The first group was the Control Group, and it was fed an ad Librium balanced diet of mouse food pellets. The second group was calorie restricted 40% from the control group, as established by baseline feeding. […] At the end of 21 weeks, 3 mice from each group were sacrificed and their livers exhumed for genomic testing.
The remaining groups of mice were allowed to live the rest of their lives on the individualized diets for humane reasons. The study has been ongoing for 18 months.
The test compound laced food was placed in the cage with the animal at the end of each day. Water was provided freely.

[8] = tested on: Drosophila melanogaster; assay: Lifespan toxicity test of preservative; format: in vivo
Protocol: as §8

[9] = tested on: Caenorhabditis elegans; assay: Lifespan toxicity test of preservative / acidizing agent; format: in vivo
Protocol: as §8, §7

[10] = tested on: genomic expression in the livers; assay: Genomic expression in the livers, Affymatrix Mouse Genome 430 2.0 Array; format: in vivo; conditions: for Percentage of genes moving in same direction as Calorie Restricted Mice (correlation): 1.7 fold expression cut-off
Source text: In the calorie restricted mice, 1,763 genes changed in expression as compared to the control group. […] Comparison of common genes changed in expression between the Calorie Restricted group and the Oxaloacetic group indicated 363 genes in common.
If a 1.7 fold expression cut-off is used to eliminate false positives (commonly used in the literature), the correlation between the two groups becomes 100% for the genes in common, which drops down to 36 highly expressed or repressed genes. A table of the genes affected is seen in Table 1.

## CC(O)C(=O)O (centres unmarked) [Lactic Acid]
[1]; Mouse data, injected, subcutaneous injection
  LD50: 4,500 mg/kg

## O=C(O)CC(O)C(=O)O (centres unmarked) [Malic Acid]
[1]; mouse, in vivo, po
  LD50: 1,600 mg/kg

## O=C(O)CC(=O)C(=O)O [Oxaloacetic Acid]
[2]; 5,000 mg/kg with food, five male C57BL/6 mice
  Survival at limitation dose: All animals survived
[2]; male, C57BL/6, mouse, in vivo, po, 8 h
  LD50: > 5,000 mg/kg
[3]
  LD50 at 8 h: > 5000 mg/kg
[4]
  smallest concentration producing a decrease in pH: 1 mM
[4]; 8 mM in Nematode Growth Agar, dropped from 6.0
  pH of the agar after addition: 5.3
[5]
  microbial growth compared to control preparations: control preparation had more microbial growth
[5]; even when the salt is used
  smallest concentration producing a reduction in microbial activity: 8 mM
[6]
  lifespan (toxicity of the preservative): no decrease in lifespan
[7]; 0.4% in food, 380 mg/kg daily, started at age of 9 months
  Increase of residual lifespan over the control group: 40%
[7]; 0.4% in food
  Average increase in lifespan compared to the control group: > 20%
[7]; 0.4% in food, 380 mg/kg
  Average increase in lifespan compared to the control group: 25%
[7]; mouse, in vivo, 380 mg/kg
  Chronic toxicity compared to the control group: negative toxicity
[8]
  lifespan (toxicity of the preservative): no decrease in lifespan
[9]
  lifespan (toxicity of the preservative): no decrease in lifespan
[9]; 8 mM in agar
  lifespan (toxicity of the acidizing agent): no decrease in lifespan
[10]; 1.7 Fold Cut Off
  Genes Moving in Opposite Direction as Calorie Restricted Mice: 0
  Genes Moving in Same Direction as Calorie Restricted Mice: 36
[10]
  Percentage of genes moving in same direction as Calorie Restricted Mice (correlation): 100%
[10]; listed as Oxaloacetate
  Percentage of genes moving in same direction as Calorie Restricted Mice (correlation): 100.0%
[10]; 363 genes in common, no cut-off
  Directional correlation of genomic expression with the calorie restricted group: 98.1%
[10]; gene 9130019P20Rik, Affx No. 39136, mouse liver vs control
  OX to C Change: 1
[10]; liver, after 21 weeks
  Genes changed in expression in common with the Calorie Restricted group: 363
[10]; liver, after 21 weeks on increasing diet
  Number of genes changed in expression as compared with the control group: 765

## O=C([O-])CC(=O)C(=O)O.[Na+] [sodium oxaloacetate salt, sodium oxaloacetate]
[5]
  microbial growth compared to control preparations: control preparations had more microbial growth
